From patent publication US12655116B2, “Substituted isophthalic acid diamides” (Bayer Aktiengesellschaft, priority 2020, dated 2026)

Test system: harmful plants
Test: Comparative experiments: herbicidal pre-emergence action versus compounds known from D1 (WO 2012/028579 A1)
Format: in vivo
Design: key to Herbicidal action against ALOMY / Herbicidal action against AVEFA / Herbicidal action against SETVI / Herbicidal action against AMARE / Herbicidal action against STEME / Herbicidal action against VIOTR / Herbicidal action against HORMU / Herbicidal action against MATIN / Herbicidal action against ABUTH: % herbicidal activity: 0 = like control, 100 = plants died
From the text: Seeds of monocotyledonous and dicotyledonous weed plants and crop plants are laid out in sandy loam soil in wood-fiber pots and covered with soil. The compounds of the invention, formulated in the form of wettable powders (WP) or as emulsion concentrates (EC), are then applied to the surface of the covering soil in the form of an aqueous suspension or emulsion at a water application rate equivalent to 600 to 800 l/ha, with addition of 0.2% wetting agent. After the treatment, the pots are placed in a greenhouse and kept under good growth conditions for the trial plants. The damage to the test plants is scored visually after a test period of 3 weeks by comparison with untreated controls (herbicidal activity in percent (%): 100% activity=the plants have died, 0% activity=like control plants). […] The tables below illustrate, in an illustrative manner, the post-emergence herbicidal action of the compounds of the invention, the herbicidal activity being stated in percent. In the experiments that follow, herbicidal action of numerous inventive compounds and the structurally closest compounds known from D1 (WO 2012/028579 A1) were compared under the above-specified conditions by the pre-emergence and post-emergence method. The example numbers given in the tables relate to the compounds disclosed in the respective documents.

| Compound | Herbicidal action against ALOMY (80 g a.i./ha) | Herbicidal action against AVEFA (80 g a.i./ha) | Herbicidal action against HORMU (80 g a.i./ha, HORMU) | Herbicidal action against SETVI (80 g a.i./ha) | Herbicidal action against STEME (80 g a.i./ha) | Herbicidal action against AMARE (80 g a.i./ha) | Herbicidal action against VIOTR (80 g a.i./ha) | Herbicidal action against ABUTH (20 g a.i./ha) | Herbicidal action against AVEFA (20 g a.i./ha) | Herbicidal action against MATIN (20 g a.i./ha) | Herbicidal action against POLCO (20 g a.i./ha, POLCO) | Herbicidal action against SETVI (20 g a.i./ha) | Herbicidal action against VIOTR (20 g a.i./ha) | Herbicidal action against AMARE (20 g a.i./ha) | Herbicidal action against STEME (20 g a.i./ha) | Herbicidal action against ABUTH (80 g a.i./ha) | Herbicidal action against MATIN (80 g a.i./ha) |
| --- | --- | --- | --- | --- | --- | --- | --- | --- | --- | --- | --- | --- | --- | --- | --- | --- | --- |
| CCn1nnnc1NC(=O)c1ccc(C(F)F)c(C(=O)NC)c1Cl [Example 2-147] | 90 | 100 | 90 | 100 | 70 |  |  |  |  |  |  |  |  |  |  |  |  |
| CNC(=O)c1c(C(F)F)ccc(C(=O)Nc2nnnn2C)c1Cl [Example 1-147] | 90 | 100 |  | 100 | 100 | 100 | 100 |  |  |  |  |  |  |  |  |  |  |
| CCn1nnnc1NC(=O)c1ccc(C(F)(F)F)c(C(=O)NC)c1Cl [Example 2-129] |  |  |  |  |  |  |  | 100 | 100 | 100 | 100 | 100 | 100 |  |  |  |  |
| CNC(=O)c1c(C(F)(F)F)ccc(C(=O)Nc2nnnn2C)c1Cl [Example 1-129] | 100 | 100 |  |  | 100 |  | 100 | 100 | 100 | 100 |  |  | 100 | 100 | 100 | 100 | 100 |
